# Laboratory results from PubChem BioAssay AID179 (DTP/NCI, 2004).
# Activity calls are given as the source filed them.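 The calls were made as follows: active = compounds giving half or more protection of infected cells from virus-caused growth loss, again on retest; inactive = the rest.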
# System: CEM cells HIV-1 protection, formazan growth assay
# Assay: NCI AIDS Antiviral Assay
# Conditions: for IC50: measured here: growth of uninfected CEM cells
# Outline: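 Screen of anti-HIV-1 activity in human CEM cells using a formazan-based growth measurement at five drug concentrations. Hits with 50% or greater protection were repeated, and confirmation required reproducible complete protection.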
Structure (SMILES),EC50 [µM],IC50 [µM],outcome
CCn1nc(-c2ccccc2)c2c1N(C)c1ccccc1-n1c(-c3ccccc3)nnc1-2,> 200,26.3,–
CC(C)C(CCOS(=O)(=O)O)CCC(C)[C@H]1[C@@H](O)C(O)C2[C@]3(O)C[C@@H](O)C4(O)C[C@@H](O)CC[C@]4(C)C3CC[C@@]21C (some centres undefined),–,–,inactive
COc1ccc2c(c1)c1c3c(ccc4ncn2c43)N(CCN(C)C)CCN=1,> 20,0.324,–
C(=Nc1cnc2ccccc2c1)c1ccncc1,> 288,66.1,–
O=C1C2=Cc3ccccc3CCN2c2ccc([N+](=O)[O-])cc21,> 200,166,–
CCOC(=O)C(C)(C(=O)OCC)C1(c2ccccc2)OC(=O)c2ccccc21 (centres undefined),–,–,inactive
COc1cccc2c1N(COC(C)=O)C(=O)C1C=CC(C)(C)OC21 (centres undefined),> 100,56.2,–
COc1cccc2c(SCC(=O)Nc3ccccc3-c3ccccc3NC(=O)CSc3c4ccccc4nc4c(OC)cccc34)c3ccccc3nc12,–,–,inactive
Cc1ccc(S(=O)(=O)CN2C(=O)C(c3ccccc3)(c3ccccc3)C23OC(c2ccc(Cl)cc2)=CC3=O)cc1 (centres undefined),> 200,> 200,–
NC(=O)C1=CC2C3C=CC2(O)C(=O)OC3O1 (centres undefined),> 1120,1.17,–
COc1cc2c(cc1OCCCCN1C(=O)c3cccc4cccc(c34)C1=O)N=C[C@@H]1CCCN1C2=O,> 200,3.47,–
CCN(CC)CCOC(=O)c1cc2ccccc2[nH]1,> 200,> 200,–
S=C(NCCCCCCNC(=S)Nc1c2ccccc2nc2ccccc12)Nc1c2ccccc2nc2ccccc12,–,–,inactive
COc1ccc(C2CC(=O)Oc3ccccc3O2)cc1 (centres undefined),102,151,–
CCC1CN2CCc3cc(OC)c(OC)cc3C2CC1CC1c2cc(OC)c(OC)cc2CCN1C(=O)C(Cc1c[nH]c2ccccc12)NC(=O)OC(C)(C)C (centres undefined),–,–,inactive
O=c1sccc2ccccc12,> 417,> 417,–
COc1nc2ncn(C(C)=O)c2c(=O)n1C,–,–,inactive
Oc1ccc(O)c(-n2cccn2)c1-n1cccn1,> 110,42.7,–
O=CC(O)C(O)C(O)C(O)COC(=O)NCCCCC(=O)C(F)(F)C(F)(F)C(F)(F)C(F)(F)C(F)(F)C(F)(F)C(F)(F)F (centres undefined),> 200,24,–
ON/N=C/c1cc2c(cc1Br)OCO2,> 263,186,–
O=c1cc(O)cc2n1CCC2,> 1660,> 1660,–
C/C(O)=C(/C=N/C(=S)Nc1ccccc1)C(=O)Nc1ccccc1C,> 200,195,–

Structure (SMILES),EC50 [µM],IC50 [µM],outcome
CCCCCCCCCCCC(=O)OCC1OC(n2cc(F)c(=O)[nH]c2=O)C(NC(=O)OCc2ccccc2)C(OC(=O)CCCCCCCCCCC)C1O (centres undefined),> 6.61,> 6.61,–
O=C(c1ccccc1)N1CCN2CCN=C(c3ccccc3)C21c1ccccc1 (centres undefined),> 132,> 132,–
Nc1cccc(N=Nc2c(S(=O)(=O)O)cc3cc(NC(=O)Nc4ccc5c(O)c(N=Nc6cccc(N)c6)c(S(=O)(=O)O)cc5c4)ccc3c2O)c1,13.5,> 100,–
CC(=O)O/N=C1\C=Cc2c(no[n+]2[O-])C1=O,> 200,18.2,–
NC(=O)c1nnc2cc(F)ccc2c1N,> 200,74.1,–
O=C1[C@H](O)[C@@H]2C(O)O[C@H]3[C@@H]2N1C[C@H]3[Si](c1ccccc1)(c1ccccc1)c1ccccc1 (some centres undefined),> 200,> 200,–
CCCNC(C#N)c1ccc(C(C#N)NCCC)cc1 (centres undefined),> 200,38.9,–
COc1ccc(N=N/C(=N\NC(=O)c2cc(Br)ccc2O)c2ccc(N(CCC#N)CCC#N)cc2OC)cc1,> 100,18.2,–
COC(=O)C1CC=C(SC(=O)c2ccccc2)N1C(=O)c1ccccc1 (centres undefined),> 200,> 200,–
CCCCCC/C=C\CCCCCCCCCC1=C(CN2CCN(C)CC2)C(=O)C=C(OC)C1=O,> 200,1,–
Cn1c(=O)c2c(c3c(c(=O)n(C)c(=O)n3C)n2Cc2ccccc2)n(C)c1=O,> 93.3,> 93.3,–
COC(=O)[C@@H]1COC(CC/C(C)=C/c2ccccc2)=N1,> 200,44.7,–
O=C1CN(c2ccc(Cl)cc2)C(=O)CN1CCN1CC(=O)N(c2ccc(Cl)cc2)CC1=O,> 200,> 200,–
CCOc1ccc(/C(Cl)=C(\C=O)c2ccc(OC)c(OC)c2)cc1OCC,> 25.7,14.1,–
O=Nc1c(O)ccc2ccccc12,> 200,2.4,–
O=C(CC(c1ccccc1)C1C(=O)C12CCCC2)c1ccccc1 (centres undefined),> 81.3,> 81.3,–
COc1ccc(S(=O)(=O)N/N=C\c2cc([N+](=O)[O-])cc(I)c2O)c(OC)c1OC,> 468,67.6,–
O=[N+]([O-])c1cc([N+](=O)[O-])c2no[n+]([O-])c2c1Nc1ccccc1,> 56.2,> 56.2,–
C=C1C(=O)O[C@H](c2ccoc2)C[C@@H]1[C@@]1(C)CCCC2(C)C(=O)OCC21 (some centres undefined),> 145,95.5,–
O=C(C[C@@H]1CCCN2CCCC[C@H]12)N1c2ccccc2Sc2ccc(Cl)cc21,> 200,20.9,–
CC(C)=C(OP1(=S)OCCN1C)C(C)(C)C(=O)N(C)C (centres undefined),> 776,537,–
CNc1c(Cl)cccc1S(=O)(=O)c1ccccc1[N+](=O)[O-],3.31,> 200,–

Structure (SMILES),EC50 [µM],IC50 [µM],outcome
O=C(O)c1ccc(C(=O)c2ccccc2C(=O)O)cc1,> 200,> 200,–
Nc1nc2c(ncn2C2CCC(CO)O2)c(=O)n1C(=O)c1ccccc1 (centres undefined),37.2,> 100,–
C=CCOc1cc(NC(=S)c2sccc2C)ccc1Cl,1.45,14.5,–
CC(C)(C[NH-])C[NH-].[Cl][Pt+2][Cl],> 676,2.04,–
CC1(O)CCC2(C)C(=O)C1(C)CCC21OCCO1 (centres undefined),–,–,inactive
COc1cccc2c(N)c3cccc(C(=O)NCCN(C)C)c3nc12,> 0.2,0.0331,–
COc1ccc(-c2cc(=O)c3c(O)cc(O)cc3o2)cc1Oc1ccc(-c2cc(=O)c3c(O)cc(O)cc3o2)cc1,> 200,2.69,–
N#C/C(=C\c1cc(Cl)cc(Cl)c1O)c1nc2ccccc2[nH]1,> 200,30.9,–
CNP(=O)(Oc1cc(Cl)c(Cl)cc1Cl)N1CCN(c2ccccc2)CC1 (centres undefined),> 58.9,30.9,–
CC(C)(NC(=O)OCc1ccccc1)C(=O)OC(=O)C(C)(C)NC(=O)OCc1ccccc1,> 200,> 200,–
Cc1ccccc1-n1c(C)nc(-c2ccccc2)cc1=O,> 26.3,> 26.3,–
CCCCC1(C)C=C/C(=C2/C(=O)O/C(=C\C(=O)O)C2=O)O1 (centres undefined),> 851,> 851,–
Cc1ccccc1C1N=C2Oc3ccccc3C=C2C(=O)N1 (centres undefined),> 100,1.41,–
Cc1cc(C)n(-c2nc3ccccc3c(=O)[nH]2)n1,> 5.13,1.07,–
O=C1c2cc3c(cc2CC12Cc1cc4c(cc1C2=O)CCCC4)CCCC3,> 200,> 200,–
CCC1CCCCN1CC(C(C)=O)C(c1ccccc1)c1c(O)c2ccccc2oc1=O (centres undefined),> 69.2,> 69.2,–
O=[N+]([O-])c1cccc(/C=N/Nc2ccc(S(=O)(=O)O)cc2)c1,> 724,646,–
COC(=O)[C@@]1(C)/C(=N/NS(=O)(=O)c2ccc(C)cc2)CCC[C@@H]1C,> 269,219,–
CC1(C)OC(=O)C(=Cc2cccc(C#N)c2)C(=O)O1,> 708,41.7,–
CC(C)N1CSC(=S)NCCNC(=S)SC1,> 200,95.5,–
NC(=S)N/N=C(\C(=O)Nc1cccc([N+](=O)[O-])c1)c1nc2ccc([N+](=O)[O-])cc2[nH]c1=O,> 288,95.5,–
CCCNC(=O)C1C(=O)C(=O)N(CCC)C1=O (centres undefined),–,–,inactive

Structure (SMILES),EC50 [µM],IC50 [µM],outcome
O=C1NC(=O)C2C3C=CC(C12)C1C2C(=O)NC(=O)C2C31 (centres undefined),> 95.5,> 95.5,–
CCc1ccccc1NC(=O)C(=O)C1C(=O)N(c2ccccc2)N=C1N (centres undefined),> 708,224,–
CC(C)CCCC(C)[C@H]1CC[C@H]2[C@H]3CC[C@@H]4C[C@H](CCC=C(c5cc(Cl)c(O)c(C(=O)O)c5)c5cc(Cl)c(O)c(C(=O)O)c5)CC[C@]4(C)[C@H]3CC[C@]12C (some centres undefined),41.7,> 200,–
COc1cc2c(cc1OC)C1CNC(C2)c2cc(OC)c(OC)cc21 (centres undefined),> 200,> 200,–
CCNC(=S)N/N=C(/c1ccccc1)c1ccccn1,> 200,1,–
O=C1c2cccnc2-c2nccc3c2c1nc1cc(Br)ccc13,> 2.69,0.132,–
CC(C)OC(=O)c1ccc(NCc2cc(O)ccc2O)cc1,> 200,2.19,–
N#C/C(=C/c1cccc(Oc2ccccc2)c1)c1ccccc1,> 6.76,> 6.76,–
CCOC(=O)C1=NN(c2ccccc2)C(=O)/C1=C\n1c(=S)sc2ccccc21,> 100,51.3,–
CCC1(O)C(=O)OCc2c1cc1n(c2=O)Cc2cc3cc(OC)c(OC)cc3nc2-1 (centres undefined),> 10,1.29,–
CC(C(=O)O)n1[se]c2ccccc2c1=O (centres undefined),12.6,120,–
COc1ccc2nc(-c3cccs3)cc(C(O)CN3CCSCC3)c2c1 (centres undefined),–,–,inactive
CCN1C[C@]2(COC)[C@H](O)C[C@H](OC)[C@]34C1[C@H]([C@H](OC)[C@H]23)[C@]1(OC(C)=O)[C@H]2[C@@H](OC(=O)c3ccccc3)[C@](O)(C[C@H]24)[C@@H](OC)[C@@H]1O,–,–,inactive
Cc1ccc(-n2cc(-c3ccc(Cl)cc3)c3c(NN)ncnc32)cc1,> 200,3.72,–
CC(=O)Nc1ccc(Nc2cc(=O)n(C)c(=O)[nH]2)cc1,> 200,> 200,–
c1cnc2c(c1)ccc1cccnc12,> 200,1.17,–
CC(=O)CC(c1ccccc1)c1c(O)c2ccccc2oc1=O (centres undefined),> 813,372,–
C1=CC(N(c2ccccc2)C2C=CCCC2)CCC1 (centres undefined),–,–,inactive
Cc1ccc(C2(c3ccc(C)cc3)SC(=C(C#N)C#N)c3ccccc32)cc1,> 200,> 200,–
